Assay results taken from PMC4671318 (Proteins, 2012).

Molecular target: human aldose reductase (AR) (Homo sapiens, UniProt P15121)
Assay: X-ray crystallography
Format: biochemical

For O=C(O)COc1cc(F)ccc1C(=S)NCc1ccc(Br)cc1F [compound 594, IDD594], the IC50 was 124 ± 10 nM.
